The source of these data is patent US7667052B2 (Eisai R&D Management Co., Ltd., priority 2003, dated 2010).

A short description of data set [1]: Solubility (physico-chemical properties of the 11107 analogues). The following applies: in dimethylsulfoxide, pyridine, methanol, acetone and water.
The test system of data set [2] is transcription from VEGF promoter. Briefly: VEGF transcription-suppressing activity, VEGF-PLAP reporter in U251/1-8 cell. Format: cell-based. The following applies: Homo sapiens, U-251; U251/1-8 cell, PLAP activity, low oxygen 18 hours; read-out: IC50 values of VEGF transcription-suppressing activity (range given). In short, it runs like this:
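U251 glioma clone stably carrying a ~2.3 kb human VEGF promoter–secreted PLAP reporter, 4×10^4 cells/well, exposed to 3-fold dilutions of compound for 18 h under low oxygen. Supernatant PLAP read by chemiluminescence at pH 10.0; IC50 = 50% suppression, normoxia 0%, hypoxia 100%.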

Usually IC50 stands for the concentration at which inhibition is half-maximal.

With `CC(=O)OC1/C=C/C(C)C(/C(C)=C/C=C/C(C)CC(O)C2OC(C)C(O)C2C)OC(=O)CC(O)CCC1(C)O` (stereo not shown) [11107AS], the Solubility entry in data set [1] is “soluble in dimethylsulfoxide, pyridine, methanol and acetone, and slightly soluble in water”.
On the same count and under the same terms, the same measure for `CCC(O)C(C)C1OC1CC(C)/C=C/C=C(\C)C1OC(=O)C(C)C(O)CCC(C)(O)C(O)/C=C/C1C` (stereo not shown) [11107AI]: “soluble in dimethylsulfoxide, pyridine, methanol and acetone, and slightly soluble in water”.
Regarding `CCC(O)C(C)C1OC1C(O)C(C)/C=C/C=C(\C)C1OC(=O)CC(O)/C=C/C(C)(O)C(OC(C)=O)/C=C/C1C` (stereo not shown) [11107AX], the 50% inhibitory concentration (IC50) in data set [2] was 0.001 to 0.1 µM. Further, the Solubility entry in data set [1] was “soluble in dimethylsulfoxide, pyridine, methanol and acetone, and slightly soluble in water”.
Consider `CCC(O)C(C)C1OC1CC(C)/C=C/C=C(\C)C1C/C=C/C(OC(C)=O)C(C)(O)CCC(O)CC(=O)O1` (stereo not shown) [11107Z], for which the IC50 in data set [2] lay within 0.001 to 0.1 µM. The Solubility entry in data set [1] is “soluble in dimethylsulfoxide, pyridine, methanol and acetone, and slightly soluble in water”.
Turning to `CCC(O)C(C)C(O)C(O)CC(C)CC/C=C(\C)C1OC(=O)CC(O)CCC(C)(O)C(OC(C)=O)/C=C/C1C` (stereo not shown) [11107AG], the Solubility entry in data set [1] is “soluble in dimethylsulfoxide, pyridine, methanol and acetone, and slightly soluble in water”.
The same measure, in the same setting: the same measure for `CCC(=O)C(C)C1OC1CC(C)(O)/C=C/C=C(\C)C1OC(=O)CC(O)CCC(C)(O)C(OC(C)=O)/C=C/C1C` (stereo not shown) [11107AV]: “soluble in dimethylsulfoxide, pyridine, methanol and acetone, and slightly soluble in water”.
On to `CC(=O)OC1/C=C/C(C)C(/C(C)=C/C=C/C(C)CC(O)/C=C(\C)C(=O)C(C)O)OC(=O)CC(O)CCC1(C)O` (stereo not shown) [11107Q], for which the concentration for half-maximal inhibition (IC50) in data set [2] lay in the range of 0.001 to 0.1 µM. For the same molecule, the Solubility result in data set [1] is “soluble in dimethylsulfoxide, pyridine, methanol and acetone, and slightly soluble in water”.
As for `CCC1OC1CC(C)(O)/C=C/C=C(\C)C1OC(=O)CC(O)CCC(C)(O)C(OC(C)=O)/C=C/C1C` (stereo not shown) [11107BB], in data set [1], the Solubility result is “soluble in dimethylsulfoxide, pyridine, methanol and acetone, and slightly soluble in water”.
Turning to `CCC(O)C(C)C1OC1CC(C)/C=C/C=C(\C)C1OC(=O)CC(OC(C)=O)CCC(C)(O)C(OC(C)=O)/C=C/C1C` (stereo not shown) [11107M], in data set [2], the IC50 lay in the range of 0.001 to 0.1 µM. For the same molecule, the Solubility result in data set [1] was “soluble in dimethylsulfoxide, pyridine, methanol and acetone, and slightly soluble in water”.
As to `CC(=O)OC1/C=C/C(C)C(/C(C)=C/C=C/C(C)CC2OC2C(C)C(O)C(C)O)OC(=O)CC(O)CCC1(C)O` (stereo not shown) [11107AW], in data set [2], the IC50 was 0.001 to 0.1 µM. Besides, the Solubility entry in data set [1] is “soluble in dimethylsulfoxide, pyridine, methanol and acetone, and slightly soluble in water”.
In the case of `CCC(O)C(C)(O)/C=C/CC(C)/C=C/C1OC(=O)CC(O)CCC(C)(O)C(OC(C)=O)/C=C/C1C` (stereo not shown) [11107BC], the Solubility result in data set [1] was “soluble in dimethylsulfoxide, pyridine, methanol and acetone, and slightly soluble in water”.
On the same count and under the same terms, with `CCC(O)C(O)CC(C)/C=C/C=C(\C)C1OC(=O)CC(O)CCC(C)(O)C(OC(C)=O)/C=C/C1C` (stereo not shown) [11107AF] the entry was “soluble in dimethylsulfoxide, pyridine, methanol and acetone, and slightly soluble in water”.
As for `CCC1OC1(C)C(O)C(C)/C=C/C=C(\C)C1OC(=O)CC(O)CCC(C)(O)C(OC(C)=O)/C=C/C1C` (stereo not shown) [11107BG], in data set [2], the 50% inhibitory concentration (IC50) lay within 0.001 to 0.1 µM. Moreover, in data set [1], the Solubility entry is “soluble in dimethylsulfoxide, pyridine, methanol and acetone, and slightly soluble in water”.
As for `CCC1OC(CC(C)/C=C/C=C(\C)C2OC(=O)CC(O)CCC(C)(O)C(OC(C)=O)/C=C/C2C)C(O)C1(C)O` (stereo not shown) [11107AU], the Solubility entry in data set [1] is “soluble in dimethylsulfoxide, pyridine, methanol and acetone, and slightly soluble in water”.
For `CCC(=O)C(C)C1OC1CC(C)/C=C/C=C(\C)C1OC(=O)CC(O)CCC(C)(O)C(O)/C=C/C1C` (stereo not shown) [11107AC], in data set [1], the Solubility entry is “soluble in dimethylsulfoxide, pyridine, methanol and acetone, and slightly soluble in water”.
As for `CCC(O)C(C)C(O)C(O)CC(C)/C=C/C=C(\C)C1OC(=O)CC(O)CCC(C)(O)C(OC(C)=O)/C=C/C1C` (stereo not shown) [11107O], in data set [1], the Solubility result was “soluble in dimethylsulfoxide, pyridine, methanol and acetone, and slightly soluble in water”.
Still for that read-out and setting: the same measure for `CCC(O)C(C)C1OC1CC(C)/C=C/C=C(\C)C1OC(=O)C(C)C(O)CCC(C)(O)C(OC(C)=O)/C=C/C1C` (stereo not shown) [11107X]: “soluble in dimethylsulfoxide, pyridine, methanol and acetone, and slightly soluble in water”; for `CCC(O)C(C)C1OC1CC(C)/C=C/C=C(\C)C1OC(=O)CC(O)/C=C/C(C)(O)C(O)/C=C/C1C` (stereo not shown) [11107S]: “soluble in dimethylsulfoxide, pyridine, methanol and acetone, and slightly soluble in water”.
Take `CCC(=O)/C(C)=C/C(O)CC(C)/C=C/C=C(\C)C1OC(=O)CC(O)CCC(C)(O)C(OC(C)=O)/C=C/C1C` (stereo not shown) [11107AA]: the Solubility result in data set [1] is “soluble in dimethylsulfoxide, pyridine, methanol and acetone, and slightly soluble in water”.
Regarding `CCC(O)C(C)C1OC1CC(C)/C=C/C=C(\C)C1OC(=O)CC(O)CCCC(O)/C=C/C1C` (stereo not shown) [11107AK], in data set [1], the Solubility result was “soluble in dimethylsulfoxide, pyridine, methanol and acetone, and slightly soluble in water”.
The same measure, in the same setting: the same measure for `CCC(O)C(C)C1OC1CC(C)/C=C/C=C(\C)C1OC(=O)CC(O)CCC(C)(O)C(O)/C=C/C1C` (stereo not shown) [11107A]: “soluble in dimethylsulfoxide, pyridine, methanol and acetone, and slightly soluble in water”; for `CCC(O)C(C)C1OC1CC(C)/C=C/C=C/C1OC(=O)CC(O)CCC(C)(O)C(O)/C=C/C1C` (stereo not shown) [11107BD]: “soluble in dimethylsulfoxide, pyridine, methanol and acetone, and slightly soluble in water”.
On the same count and under the same terms, with `CCC(O)C(C)C1OC1CC(C)/C=C/C=C(\C)C1OC(=O)CC(O)CCC(C)(O)CCC(=O)C1C` (stereo not shown) [11107V] the entry was “soluble in dimethylsulfoxide, pyridine, methanol and acetone, and slightly soluble in water”; with `CCC(O)C(C)/C=C/C=C(\C)C1OC(=O)CC(O)CCC(C)C(OC(C)=O)/C=C/C1C` (stereo not shown) [11107BJ], “soluble in dimethylsulfoxide, pyridine, methanol and acetone, and slightly soluble in water”; with `CCC(O)C(C)C1OC1CC(C)/C=C/C=C(\C)C1OC(=O)CC(O)CCC2(CO2)C(O)/C=C/C1C` (stereo not shown) [11107AO], “soluble in dimethylsulfoxide, pyridine, methanol and acetone, and slightly soluble in water”.
Still for that read-out and setting: with `CC(=O)OC1/C=C/C(C)C(/C(C)=C/C=C/C(C)O)OC(=O)CC(O)CCC1C` (stereo not shown) [11107AR] the entry was “soluble in dimethylsulfoxide, pyridine, methanol and acetone, and slightly soluble in water”; with `CCC(=O)C(C)(O)/C=C/CC(C)/C=C/C1OC(=O)CC(O)CCC(C)(O)C(OC(C)=O)/C=C/C1C` (stereo not shown) [11107AH], “soluble in dimethylsulfoxide, pyridine, methanol and acetone, and slightly soluble in water”; with `CCC(O)C(C)C(O)C(O)CC(C)/C=C/C=C(\C)C1OC(=O)CC(O)/C=C/C(C)(O)C(OC(C)=O)/C=C/C1C` (stereo not shown) [11107BA], “soluble in dimethylsulfoxide, pyridine, methanol and acetone, and slightly soluble in water”.
Consider `CCC(O)C(C)C1OC1CC(C)/C=C/C=C(\C)C1OC(=O)CC(O)CCC(C)(O)C(OC(C)=O)/C=C/C1C` (stereo not shown) [11107AD], for which the Solubility result in data set [1] was “soluble in dimethylsulfoxide, pyridine, methanol and acetone, and slightly soluble in water”.
Consider `CCC(OC(N)=O)C(C)C1OC1CC(C)/C=C/C=C(\C)C1OC(=O)CC(OC(N)=O)CCC(C)(O)C(OC(C)=O)/C=C/C1C` (stereo not shown) [B33-1, (8E,12E,14E)-7-Acetoxy-3,21-dicarbamoyloxy-6-hydroxy-6,10,12,16,20-pentamethyl-18,19-epoxytricosa-8,12,14-trien-11-olide], for which the IC50 in data set [2] was 0.0005 to 0.1 µM.
As for `CCC(O)C(C)C1OC1C(O)C(C)/C=C/C=C(\C)C1OC(=O)CC(O)CCC(C)(O)C(OC(C)=O)/C=C/C1C` (stereo not shown) [11107BF], in data set [1], the Solubility result is “soluble in dimethylsulfoxide, pyridine, methanol and acetone, and slightly soluble in water”.
Take `CCC(O)C(C)C1OC1CC(C)/C=C/C=C(\C)C1OC(=O)CC(O)CCC(C)(O)C(OC(=O)NCc2cccnc2)/C=C/C1C` (stereo not shown) [B57, (8E,12E,14E)-3,6,21-Trihydroxy-6,10,12,16,20-pentamethyl-7-N-(3-pyridylmethyl)carbamoyloxy-18,19-epoxytricosa-8,12,14-trien-11-olide]: the half-inhibitory concentration (IC50) in data set [2] was 0.0005 to 0.1 µM.
The same measure, in the same setting: the same measure for `CCC(O)C(C)C1OC1CC(C)/C=C/C=C(\C)C1OC(=O)CC(O)CCC(C)(O)C(OC(=O)NCc2ccccn2)/C=C/C1C` (stereo not shown) [B56, (8E,12E,14E)-3,6,21-Trihydroxy-6,10,12,16,20-pentamethyl-7-N-(2-pyridylmethyl)carbamoyloxy-18,19-epoxytricosa-8,12,14-trien-11-olide]: 0.0005 to 0.1 µM; for `CCC(O)C(C)C(I)C(O)CC(C)/C=C/C=C(\C)C1OC(=O)CC(O)CCC(C)(O)C(OC(C)=O)/C=C/C1C` (stereo not shown) [B3-1, (8E,12E,14E)-7-Acetoxy-3,6,18,21-tetrahydroxy-19-iodo-6,10,12,16,20-pentamethyltricosa-8,12,14-trien-11-olide]: 0.0005 to 0.1 µM.
Regarding `CCC(OC(C)=O)C(C)C(Br)C(CC(C)/C=C/C=C(\C)C1OC(=O)CC(O)CCC(C)(O)C(OC(C)=O)/C=C/C1C)OC(C)=O` (stereo not shown) [B23-1, (8E,12E,14E)-7,18,21-Triacetoxy-19-bromo-3,6-dihydroxy-6,10,12,16,20-pentamethyltricosa-8,12,14-trien-11-olide], the IC50 in data set [2] lay within 0.0005 to 0.1 µM.
Turning to `CCC(O)C(C)C(O)C(I)CC(C)/C=C/C=C(\C)C1OC(=O)CC(O)CCC(C)(O)C(OC(C)=O)/C=C/C1C` (stereo not shown) [B3-2, (8E,12E,14E)-7-acetoxy-3,6,19,21-tetrahydroxy-18-iodo-6,10,12,16,20-pentamethyltricosa-8,12,14-trien-11-olide], in data set [2], the concentration for half-maximal inhibition (IC50) lay within 0.0005 to 0.1 µM.
On to `CC(=O)OC1/C=C/C(C)C(/C=C/C(C)C/C=C/C(C)O)OC(=O)CC(O)CCC1(C)O` (stereo not shown) [11107BE], for which the Solubility entry in data set [1] was “soluble in dimethylsulfoxide, pyridine, methanol and acetone, and slightly soluble in water”.
